Consider 26 compounds from patent publication US8383629B2, “Inhibitors of 11β-hydroxysteroid dehydrogenase type 1” (Vitae Pharmaceuticals, Inc., priority 2008, dated 2013).

Each structure is given as a SMILES string.

The target in the test is T1, human 11β-HSD1 (Homo sapiens, UniProt P28845).
T1 construct: expressed in transfected cells; host or cells: CHO cells (microsomes)
Put plainly: Inhibition of microsomal preparation of 11β-HSD1 (SPA, Biological Test Example 1). It counts as biochemical. As to conditions: for IC50: microsomes from CHO cells overexpressing human 11β-HSD1, read-out: IC50 Range; for inhibition at 0.111 µM: 111 nM. How it is done:
The inhibition of microsomal preparation of 11β-HSD1 by compounds of the invention was measured essentially as previously described (K. Solly, S. S. Mundt, H. J. Zokian, G. J. Ding, A. Hermanowski-Vosatka, B. Strulovici, and W. Zheng, High-Throughput Screening of 11-Beta-Hydroxysteroid Dehydrogenase Type 1 in Scintillation Proximity Assay Format. Assay Drug Dev Technol 3 (2005) 377-384). All reactions were carried out at rt in 96 well clear flexible PET Microbeta plates (PerkinElmer). The assay begins by dispensing 49 μl of substrate solution (50 mM HEPES, pH 7.4, 100 mM KCl, 5 mM NaCl, 2 mM MgCl2, 2 mM NADPH and 160 nM [^3H]cortisone (1 Ci/mmol)) and mixing in 1 μL of the test compounds in DMSO previously diluted in half-log increments (8 points) starting at 0.1 mM. After a 10 minute pre-incubation, 50 μL of enzyme solution containing microsomes isolated from CHO cells overexpressing human 11β-HSD1 (10-20 μg/ml of total protein) was added, and the plates were incubated for 90 minutes at rt. The reaction was stopped by adding 50 μl of the SPA beads suspension containing 10 μM 18β-glycyrrhetinic acid, 5 mg/ml protein A coated YSi SPA beads (GE Healthcare) and 3.3 μg/ml of anti-cortisol antibody (East Coast Biologics) in Superblock buffer (Bio-Rad). The plates were shaken for 120 minutes at rt, and the SPA signal corresponding to [^3H]cortisol was measured on a Microbeta plate reader.

T1 sequence (P28845 whole entry): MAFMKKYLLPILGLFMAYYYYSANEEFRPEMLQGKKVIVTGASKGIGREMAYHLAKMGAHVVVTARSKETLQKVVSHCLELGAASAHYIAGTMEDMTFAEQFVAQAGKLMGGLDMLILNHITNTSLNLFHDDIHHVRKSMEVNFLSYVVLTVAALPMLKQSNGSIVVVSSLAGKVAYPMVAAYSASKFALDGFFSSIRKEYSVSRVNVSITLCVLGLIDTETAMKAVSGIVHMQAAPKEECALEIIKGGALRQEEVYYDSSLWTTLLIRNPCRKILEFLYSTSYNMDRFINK

By inhibition is commonly meant the relative decrease from the control value, in per cent. Low values mean little suppression, high ones strong suppression. The IC50 is the concentration needed to halve the response being measured. With `O=C(CCc1ccccc1C(F)(F)F)N1CCC2(CC1)C(=O)Nc1ccccc12` [EXAMPLE 67, 1′-(3-(2-(trifluoromethyl)phenyl)propanoyl)spiro[indoline-3,4′-piperidin]-2-one], the half-inhibitory concentration (IC50) was less than 100 nM. The inhibition at 0.1 µM (100 nM) came out at 100%.

As for `CN1CCN(C(=O)c2ccc3c(c2)C2(CCN(C(=O)/C=C/c4ccccc4C(F)(F)F)CC2)C(=O)N3C)CC1` [EXAMPLE 37, (E)-1-methyl-5-(4-methylpiperazine-1-carbonyl)-1′-(3-(2-(trifluoromethyl)phenyl)acryloyl)spiro[indoline-3,4′-piperidin]-2-one], the inhibition at 0.111 µM stood at 7.1% and the IC50 fell in the range of 100 to 1000 nM.

Take `CC(C)Oc1ccccc1CNC(=O)N1CCC2(CC1)CC(CC(=O)O)c1cccc(Br)c12` (stereo not shown) [EXAMPLE 98, 2-(7-bromo-1′-(2-isopropoxybenzylcarbamoyl)-2,3-dihydrospiro[indene-1,4′-piperidine]-3-yl)acetic acid]: the inhibition at 0.111 µM came to 48.2% and the IC50 is less than 100 nM.

For `O=C(O)CC1CC2(CCN(C(=O)/C=C/c3ccccc3C(F)(F)F)CC2)c2c(Br)cccc21` (single isomer, unassigned; isomer 2) [EXAMPLE 2.2, (E)-2-(7-bromo-1′-(3-(2-(trifluoromethyl)phenyl)acryloyl)-2,3-dihydrospiro[indene-1,4′-piperidine]-3-yl)acetic acid isomer 2], the IC50 is less than 100 nM. Also, the “Average % inhibition at 100 nM” value (100 nM, 0.1 µM) is listed as 100.3%.

Consider `COC(=O)c1ccc2c(c1)C1(CCN(C(=O)CCc3ccccc3C(F)(F)F)CC1)C(=O)N2C` [EXAMPLE 76, 1-methyl-2-oxo-1′-(3-(2-(trifluoromethyl)phenyl)propanoyl)spiro[indoline-3,4′-piperidine]-5-carboxylate], for which the inhibition at 0.111 µM was determined as 60% and the half-maximal inhibitory concentration (IC50) is less than 100 nM.

On to `O=C1CC2(CCN(C(=O)/C=C/c3c(Cl)cccc3Cl)CC2)c2c(Br)cccc21` [EXAMPLE 17, (E)-7-bromo-1′-(3-(2,6-dichlorophenyl)acryloyl)spiro[indene-1,4′-piperidin]-3(2H)-one], for which testing at 0.111 µM gave an inhibition of 81.2% and the half-inhibitory concentration (IC50) is less than 100 nM.

Consider `O=C(NCc1ccccc1-c1ccccc1)N1CCC2(CC1)OCc1ccccc12` [EXAMPLE 85, N-(biphenyl-2-ylmethyl)-3H-spiro[isobenzofuran-1,4′-piperidine]-1′-carboxamide], for which the inhibition at 0.111 µM was determined as 19.4% and the concentration for half-maximal inhibition (IC50) was in the range of 100 to 1000 nM.

Turning to `O=C1CC2(CCN(C(=O)OCc3ccccc3C(F)(F)F)CC2)c2c(Br)cccc21` [EXAMPLE 105, 2-(trifluoromethyl)benzyl 7-bromo-3-oxo-2,3-dihydrospiro[indene-1,4′-piperidine]-1′-carboxylate], 0.111 µM produced 82.3% inhibition and the IC50 is less than 100 nM.

As to `O=C1CC2(CCN(C(=O)COc3ccccc3C(F)(F)F)CC2)c2c(Br)cccc21` [EXAMPLE 106, 7-bromo-1′-(2-(2-(trifluoromethyl)phenoxy)acetyl)spiro[indene-1,4′-piperidin]-3(2H)-one], the IC50 is less than 100 nM.

As for `Cc1ccc2c(c1)C(CC(=O)O)CC21CCN(C(=O)/C=C/c2ccccc2C(F)(F)F)CC1` (racemic) [EXAMPLE 12, (±)-(E)-2-(5-methyl-1′-(3-(2-(trifluoromethyl)phenyl)acryloyl)-2,3-dihydrospiro[indene-1,4′-piperidine]-3-yl)acetic acid], at 0.111 µM the inhibition was 90.3% and the IC50 was less than 100 nM.

Turning to `CN(Cc1ccccc1C(F)(F)F)C(=O)N1CCC2(CC1)CC(CC(=O)O)c1cccc(Br)c12` (stereo not shown) [EXAMPLE 102, 2-(7-bromo-1′-(methyl(2-(trifluoromethyl)benzyl)carbamoyl)-2,3-dihydrospiro[indene-1,4′-piperidine]-3-yl)acetic acid], the inhibition at 0.111 µM was determined as 64.4% and the IC50 was less than 100 nM.

With `CN(C)C(=O)c1ccc2c(c1)C1(CCN(C(=O)/C=C/c3ccccc3C(F)(F)F)CC1)C(=O)N2C` [EXAMPLE 34, (E)-N,N,1-trimethyl-2-oxo-1′-(3-(2-(trifluoromethyl)phenyl)acryloyl)spiro[indoline-3,4′-piperidine]-5-carboxamide], the inhibition at 0.111 µM worked out at 38.2% and the half-maximal inhibitory concentration (IC50) was in the range of 100 to 1000 nM.

In the case of `CN1C(=O)C2(CCN(C(=O)/C=C/c3ccccc3C(F)(F)F)CC2)c2cc(C#N)ccc21` [EXAMPLE 39, (E)-1-methyl-2-oxo-1′-(3-(2-(trifluoromethyl)phenyl)acryloyl)spiro[indoline-3,4′-piperidine]-5-carbonitrile], the inhibition at 0.111 µM was found to be 64.8% and the IC50 was less than 100 nM.

`CCOC(=O)CC1CC2(CCN(C(=O)NCc3ccccc3C(F)(F)F)CC2)c2c(Br)cccc21` (stereo not shown) [EXAMPLE 92, Ethyl 2-(7-bromo-1′-(2-(trifluoromethyl)benzylcarbamoyl)-2,3-dihydrospiro[indene-1,4′-piperidine]-3-yl)acetate]: testing at 0.111 µM gave an inhibition of 70.5% and the IC50 was less than 100 nM.

On to `O=C(O)CC1CC2(CCN(C(=O)Cc3ccccc3OC(F)(F)F)CC2)c2c(Cl)cccc21` (stereo not shown) [EXAMPLE 52, 2-(7-chloro-1′-(2-(2-(trifluoromethoxy)phenyl)acetyl)-2,3-dihydrospiro[indene-1,4′-piperidine]-3-yl)acetic acid], for which the IC50 is less than 100 nM. This compound also displayed an inhibition at 0.1 µM (100 nM) of 61.2%.

Regarding `O=C1CC2(CCN(C(=O)/C=C/c3ccccc3C(F)(F)F)CC2)c2c(Br)cccc21` [EXAMPLE 15, (E)-7-bromo-1′-(3-(2-(trifluoromethyl)phenyl)acryloyl)spiro[indene-1,4′-piperidin]-3(2H)-one], at 0.111 µM the inhibition was 92.6% and the IC50 is less than 100 nM. Under “100 nM”, this compound returned an inhibition at 0.1 µM of 95.3%.

Regarding `CN1C(=O)C2(CCN(C(=O)CCc3ccccc3C(F)(F)F)CC2)c2cc(C#N)ccc21` [EXAMPLE 79, 1-methyl-2-oxo-1′-(3-(2-(trifluoromethyl)phenyl)propanoyl)spiro[indoline-3,4′-piperidine]-5-carbonitrile], testing at 0.111 µM gave an inhibition of 51.4% and the half-maximal inhibitory concentration (IC50) was 100 to 1000 nM.

Consider `O=C1NC2(CCN(C(=O)/C=C/c3ccccc3C(F)(F)F)CC2)c2c(Br)cccc21` [EXAMPLE 28, (E)-7-bromo-1′-(3-(2-(trifluoromethyl)phenyl)acryloyl)spiro[isoindoline-1,4′-piperidin]-3-one], for which testing at 0.111 µM gave an inhibition of 92.7% and the half-inhibitory concentration (IC50) is less than 100 nM.

For the compound `CN1C(=O)c2cccc(Cl)c2C12CCN(C(=O)NCc1ccccc1C(F)(F)F)CC2` [EXAMPLE 100, 7-chloro-2-methyl-3-oxo-N-(2-(trifluoromethyl)benzyl)spiro[isoindoline-1,4′-piperidine]-1′-carboxamide], at 0.111 µM the inhibition was 46.8% and the IC50 lay in the range of 100 to 1000 nM.

Turning to `CNC(=O)c1ccc2c(c1)C1(CCN(C(=O)/C=C/c3ccccc3C(F)(F)F)CC1)C(=O)N2C` [EXAMPLE 38, (E)-N,1-dimethyl-2-oxo-1′-(3-(2-(trifluoromethyl)phenyl)acryloyl)spiro[indoline-3,4′-piperidine]-5-carboxamide], testing at 0.111 µM gave an inhibition of 21.3% and the concentration for half-maximal inhibition (IC50) lay in the range of 100 to 1000 nM.

In the case of `O=C(Cc1ccccc1C(F)(F)F)N1CCC2(CC1)C(=O)Nc1ccccc12` [EXAMPLE 47, 1′-(2-(2-(trifluoromethyl)phenyl)acetyl)spiro[indoline-3,4′-piperidin]-2-one], the inhibition at 0.111 µM amounted to 83.3% and the concentration for half-maximal inhibition (IC50) was less than 100 nM.

Consider `NC1CC2(CCN(C(=O)CCc3ccccc3C(F)(F)F)CC2)c2c(Br)cccc21` (stereo not shown) [EXAMPLE 66, 1-(3-amino-7-bromo-2,3-dihydrospiro[indene-1,4′-piperidine]-1′-yl)-3-(2-(trifluoromethyl)phenyl)propan-1-one], for which the inhibition at 0.111 µM stood at 92.1% and the IC50 was less than 100 nM.

For `CCOC(=O)CC1CC2(CCN(C(=O)NCc3ccccc3C)CC2)c2c(Br)cccc21` (stereo not shown) [EXAMPLE 86, Ethyl 2-(7-bromo-1′(2-methylbenzylcarbamoyl)-2,3-dihydrospiro[indene-1,4′-piperidine]-3-yl)acetate], at 0.111 µM the inhibition was 58.7% and the IC50 was less than 100 nM.

With `O=C1NC2(CCN(C(=O)CCc3ccccc3C(F)(F)F)CC2)c2c(Br)cccc21` [EXAMPLE 71, 7-bromo-1′-(3-(2-(trifluoromethyl)phenyl)propanoyl)spiro[isoindoline-1,4′-piperidin]-3-one], the inhibition at 0.111 µM stood at 93.9% and the IC50 was less than 100 nM.

In the case of `O=C(O)CC1CC2(CCN(C(=O)NCc3ccccc3C(F)(F)F)CC2)c2c(Br)cccc21` (stereo not shown) [EXAMPLE 94, 2-(7-bromo-1′-(2-(trifluoromethyl)benzylcarbamoyl)-2,3-dihydrospiro[indene-1,4′-piperidine]-3-yl)acetic acid], the inhibition at 0.111 µM worked out at 75.7% and the IC50 was less than 100 nM.

Consider `CN1C(=O)c2ccccc2C12CCN(C(=O)/C=C/c1ccccc1C(F)(F)F)CC2` [EXAMPLE 24, (E)-2-methyl-1′-(3-(2-(trifluoromethyl)phenyl)acryloyl)spiro[isoindoline-1,4′-piperidin]-3-one], for which testing at 0.111 µM gave an inhibition of 82.3% and the IC50 was less than 100 nM.
